Measured values from patent US20050027016A1, “Polyamine compounds and compositions for use in conjection with cancer therapy” (priority 2002, published 2005).
Read-outs that look alike come from different tables or passages of the source.

What was measured:
[1] = tested on: Cytoxan-induced alopecia in the rat model; type: in vivo; conditions: rat pups, 35 ug/gm i.p., approximately 7 days after challenge
Text: FIGS. 6A-6E illustrate the efficacy of each of the indicated chemoprotective polyamines in protecting against Cytoxan-induced alopecia in the rat model Hussein et al., 1990, infra). In this protocol (See Example 2), chemoprotective polyamines are applied topically to the rat pups' backs in an alcohol:water delivery vehicle, once per day, for five days before and five days after a single systemic dose of Cytoxan.
The efficacy of […] polyamines in reducing or preventing chemotherapy-induced alopecia in a rat model was examined. This animal model mimics many of the features found in chemotherapy-induced alopecia seen in humans and is considered a clinically relevant model for testing novel therapeutics.
Induction of alopecia by cytoxan (CTX). Lactating Sprague Dawley mother rats with rat pups were purchased from Harlan Sprague Dawley (Indianapolis, Ind.). The mother rats were given food and water ad libitum. The rats pups were tested in the model of chemotherapy-induced alopecia described by Hussein A. M. et al., Science: 249, 1564 (1990). Cytoxan (CTX), a chemotherapeutic widely used in the treatment of cancer, was used to induce alopecia in the rats. […]
Approximately 7 to 10 days after CTX treatment, the pups were evaluated for alopecia Hair loss was evaluated using a modified alopecia-scoring index described by Chen G. et al., Int. […]

23SK skin cells = test: Cell cycle distribution by flow cytometry in 23SK skin cells; type: cell-based, human; conditions: for Cell Cycle Distribution At IC80 Dose: G1 / Cell Cycle Distribution At IC80 Dose: G2/M / Cell Cycle Distribution At IC80 Dose: S: 23SK cells
Text: FIGS. 5A-5D are cell histograms showing the results from flow cytometry analysis of chemoprotective polyamine-treated 23SK skin cells.
In FIG. 5, cell histograms showing the results from flow cytometry analysis of chemoprotective polyamine-treated 23SK skin cells are shown. […] The transient nature of the cell cycle block induced by chemoprotective polyamines is believed to be an important aspect of their efficacy, i.e., their ability to block cell cycle progression in stem cells during the course of chemo- or radiotherapy, and the resumption of normal stem cell division after a given cancer therapy course has been completed.

[2] = tested on: primary, diploid fibroblasts isolated from human skin; test: In vitro growth inhibition of primary diploid human skin fibroblasts; type: cell-based
Procedure: FIG. 2 illustrates the relationship between the number of aliphatic carbon atoms in each chemoprotective polyamine side chain (‘arm’) and the respective IC50 dose for inhibition of human fibroblast growth.
The in vitro growth inhibitory effects of certain of the chemoprotective polyamines of the invention were measured using primary, diploid fibroblasts isolated from human skin.

helical B-DNA = test: DNA binding/denaturation/precipitation from solution
Text: The chemoprotective polyamines of the invention are also able to bind, denature and precipitate DNA from solution As is known in the field, as the concentration of polyamine is increased, there is a point where polyamine binding to helical B-DNA induces single-stranded ‘bubbles’ and conversion to other forms of DNA structure, such as 2-DNA (Feuerstein, B. et al. Nuc. Acids Res. 17:6883-6892, 1989; Basu, H. and Marton, L. Biochem. J. 244:243-246, 1987), as well as precipitating the DNA from solution.
This relationship between arm length of the chemoprotective polyamine and increased ability to disrupt and denature B-DNA structure is also a unique aspect of this invention. The increased ability to bind DNA and disrupt its helical structure may also contribute to the molecule's ability to protect cellular DNA against electrophilic chemotherapy drug metabolites and against oxygen free radicals generated during radiotherapy. Both of these toxic modalities are believed to require normal B-DNA helical structure within the cell's nuclear DNA in order to achieve chemical or physical disruption of the cellular DNA, the first step in the apoptotic cascade.

p21 = p21 induction in 23SK human skin cells by western analysis; type: cell-based; conditions: 30 hr exposure
Procedure: FIGS. 3A and 3B illustrate the level of induced p21 protein seen in diploid human fibroblasts after a 30 hr exposure to each of the indicated chemoprotective polyamines. […] In these experiments, the 23SK human skin cells were exposed for 30 hr to an “ICso” dose of each of the indicated chemoprotective polyamines and then lysed. Cell extracts were then prepared in order to measure p21 levels by western analysis (FIG. 3A).
FIG. 3 illustrates that chemoprotective polyamines are able to induce expression of the negative cell cycle regulatory protein, p21, after exposing the human skin cells to the polyamine molecules. […] In these experiments, the 23SK human skin cells were exposed for 30 hr to an “IC80” dose of each of the indicated chemoprotective polyamines and then lysed. Cell extracts were then prepared in order to measure p21 levels by western analysis (FIG. 3A). Although the ability of modified polyamines to induce p21 is known in the literature (Kramer, D. et al., Cancer Res. 59:1278-1286, 1999), it is a novel aspect of this invention that those chemoprotective polyamines with longer aliphatic “arms” were better able to induce expression of p21 as shown in FIG. 4.

[3] = Expt. 1, read-out: IC50 (drug concentration that caused a 50% inhibition of cell growth), Expt. 1
[4] = Expt. 2, read-out: IC50 (drug concentration that caused a 50% inhibition of cell growth), Expt. 2
[5] = Expt. 1 (first or only value in cell), read-out: DNA Bind/ppt. IC50, Expt. 1
[6] = Expt. 2 (second value in cell), read-out: DNA Bind/ppt. IC50, Expt. 2
[7] = 23SK cells treated for 72 hr (FIG. 5C)

Structure (SMILES)	IC50 (helical B-DNA; [5]) [µM]	IC50 (helical B-DNA; [6]) [µM]	hair loss induced [1] [%]	Cell Cycle Distribution At IC80 Dose: G1 (23SK skin cells) [%]	Cell Cycle Distribution At IC80 Dose: G2/M (23SK skin cells) [%]	Cell Cycle Distribution At IC80 Dose: S (23SK skin cells) [%]	IC50 [2, 3] [µM]	IC50 [2, 4] [µM]	p21 fold-induction at IC80 Dose (p21)	cells in G1 compartment (23SK skin cells; [7]) [%]	cells in S+G2 compartments (23SK skin cells; [7]) [%]	distribution within cell cycle compartments after drug removal (23SK skin cells; 72 hr treatment, then 48 hr in medium devoid of compound (FIG. 5D))
O=P1(N(CCCl)CCCl)NCCCO1 (stereo not drawn) [CTX, cyclophosphamide(cytoxan)]	–	–	100	–	–	–	–	–	–	–	–	–
CN[C@H]1CCc2cc(OC)c(OC)c(OC)c2-c2ccc(OC)c(=O)cc21 [Colcemid, reference compound]	–	–	–	8	81	11	–	–	–	–	–	–
CCNCCCCNCC=C(CNCC)CNCCCCNCC [PrC-110]	–	–	–	60	14	26	–	–	–	–	–	–
CCNCCCCNCCCCNCC=C(CNCC)CNCCCCNCCCCNCC [PrC-111]	–	–	–	60	14	25	–	–	–	–	–	–
CCNCCCCNCCCCNCCCCNCC=C(CNCC)CNCCCCNCCCCNCCCCNCC [PrC-112]	–	–	–	61	16	23	–	–	–	–	–	–
CCNCCCCNCCCCNCCCCNCCCCNCC=C(CNCC)CNCCCCNCCCCNCCCCNCCCCNCC [PrC-113]	–	–	–	77	14	8	–	–	–	–	–	–

Second part, led by results:

IC50 (helical B-DNA; [5]) [µM]	IC50 (helical B-DNA; [6]) [µM]	Structure (SMILES)	hair loss induced [1] [%]	Cell Cycle Distribution At IC80 Dose: G1 (23SK skin cells) [%]	Cell Cycle Distribution At IC80 Dose: G2/M (23SK skin cells) [%]	Cell Cycle Distribution At IC80 Dose: S (23SK skin cells) [%]	IC50 [2, 3] [µM]	IC50 [2, 4] [µM]	p21 fold-induction at IC80 Dose (p21)	cells in G1 compartment (23SK skin cells; [7]) [%]	cells in S+G2 compartments (23SK skin cells; [7]) [%]	distribution within cell cycle compartments after drug removal (23SK skin cells; 72 hr treatment, then 48 hr in medium devoid of compound (FIG. 5D))
94	–	CCNCCCCNCC=C(CS)CNCCCCNCC [PrC-114]	–	–	–	–	850	240	–	–	–	–
37	83	CCNCCCCNCCCCNCC=C(CS)CNCCCCNCCCCNCC [PrC-115]	–	–	–	–	4100	1090	–	–	–	–
82	63	CCNCCCCNCCCCNCCCCNCC=C(CS)CNCCCCNCCCCNCCCCNCC [PrC-116]	–	66	23	11	5.8	–	2.32 fold	–	–	–
58	57	CCNCCCCNCCCCNCCCCNCCCCNCC=C(CS)CNCCCCNCCCCNCCCCNCCCCNCC [PrC-117]	–	86	3	11	0.32	0.24	˜3.0 fold	86.23	13.77	basically returned to that seen in cells previously untreated with chemoprotective polyamine
57	–	CCNCCCCNCCCCNCCCCNCCCCNCC=C(CNC)CNCCCCNCCCCNCCCCNCCCCNCC [PrC-120]	–	–	–	–	0.22	0.18	2.01 fold	–	–	–
49	–	CCNCCCCNCCCCNCCCCNCCCCNCC=C(CNCCCCNCCCCNCCCCNCCCCNCC)CN(C)C [PrC-121]	–	76	20	4	0.15	–	3.26 fold	–	–	–
